# Tests used:
# human VR1 [1] = biological target: T1, human VR1 (Homo sapiens, UniProt Q8NER1); assay: Human VR1 [3H]RTX binding assay; conditions: for h Binding % I (1 μM) / inhibition at 1 µM: inhibition of [3H]RTX binding at 1 μM; for Ki: [3H]RTX binding, HEK293 membranes; for inhibition at 1 µM: read-out: h Binding % I (1 μM)
# T1 construct: expressed in transfected cells; host or cells: HEK293
# Procedure: Compounds of the present invention were tested for their ability to inhibit the binding of tritiated resiniferatoxin ([^3H] RTX) to human VR1 receptors in a [^3H] RTX binding assay, as previously described (Zhang, Sui-Po. Improved ligand binding assays for vanilloid receptors. PCT Int. Appl. (2002), WO 0233411 A1 20020425 AN 2002:315209; Grant, Elfrida R., Dubin, Adrienne E., Zhang, Sui-Po, Zivin, Robert A., Zhong, Zhong Simultaneous intracellular calcium and sodium flux imaging in human VR1-transfected human embryonic kidney cells: a method to resolve ionic dependence of VR1-mediated cell death. J. Pharmacol. Exp. ther., 2002, 300(1), 9-17.) HEK293 cells were transfected with human VR1 and washed with Hank's balanced Salt Solution, dissociated with cell dissociation buffer (Sigma), and then centrifuged at 1000× g for 5 min. Cell pellets were homogenized in cold 20 mM HEPES buffer (pH 7.4), containing 5.8 mM NaCl, 320 mM sucrose, 2 mM MgCl2, 0.75 CaCl2 and 5 mM KCl and centrifuged at 1000× g for 15 min. The resultant supernate was then centrifuged at 40000× g for 15 min. The pelleted membranes were stored in a freezer at −80 C.
# Approximately 120 μg protein/ml from membranes were incubated with indicated concentrations of [^3H]RTX in 0.5 ml of the HEPES buffer (pH 7.4) containing 0.25 mg/mL fatty acid-free bovine serum albumin at 37 C for 60 min. After cooling the reaction mixture to 4 C, 0.1 mg (x-acid glycoprotein was added to each sample, which was incubated at 4 C for 15 min and then centrifuged at 18500× g for 15 min. The tip of the microcentrifuge tube containing the pellet was cut off. Bound radioactivity was quantified by scintillation counting. Non-specific binding was assessed in the presence of 200 nM unlabeled resiniferatoxin.
# Data were calculated according to the equation: % inhibtion=(total binding−binding)*100/(total binding−non specific binding).
# Ki values were calculated based on an average of duplicate measurements using a GraphPad Prism program.
# human VR1 [2] = biological target: T1, human VR1; assay: Human VR1 functional assay (FLIPR intracellular Ca2+); format: cell-based; conditions: for h % I (10 μM) / inhibition at 10 µM: inhibition of capsaicin response; for Emax at 12 µM: read-out: % Response Relative to EC80 of Capsaicin (12 μM); for inhibition at 10 µM: read-out: h % I (10 μM); for IC50: antagonism of capsaicin-induced Ca2+ increase, read-out: h IC50; for EC50: agonist-induced Ca2+ increase, read-out: h EC50
# Procedure: The functional activity of the test compounds was determined by measuring changes in intracellular calcium concentration using a Ca^2+-sensitive fluorescent dye and FLIPR™ technology. Increases in Ca^2+ concentration were readily detected upon challenge with capsaicin. HEK293 Cells expressing human VR1 were grown on poly-D-lysine coated 384 well black-walled plates (BD 354663) and 1 day later loaded with Calcium 3 Dye for 35 min at 37 C, 5% CO2 and then for 25 min at room temperature, and subsequently tested for agonist-induced increases in intracellular Ca^2+ levels using FLIPR™ technology. Cells were challenged with test compounds (at varying concentrations, which are indicated in parentheses in the heading of the table below) and intracellular Ca^2+ was measured for 5 min prior to the addition of capsaicin to all wells to achieve a final concentration of eliciting an approximate 80% maximal response ([…]). EC50 or IC50 values were determined from dose-response studies. Curves were generated using the average of quadruplicate wells for each data point.
# T1 sequence (Q8NER1 whole entry): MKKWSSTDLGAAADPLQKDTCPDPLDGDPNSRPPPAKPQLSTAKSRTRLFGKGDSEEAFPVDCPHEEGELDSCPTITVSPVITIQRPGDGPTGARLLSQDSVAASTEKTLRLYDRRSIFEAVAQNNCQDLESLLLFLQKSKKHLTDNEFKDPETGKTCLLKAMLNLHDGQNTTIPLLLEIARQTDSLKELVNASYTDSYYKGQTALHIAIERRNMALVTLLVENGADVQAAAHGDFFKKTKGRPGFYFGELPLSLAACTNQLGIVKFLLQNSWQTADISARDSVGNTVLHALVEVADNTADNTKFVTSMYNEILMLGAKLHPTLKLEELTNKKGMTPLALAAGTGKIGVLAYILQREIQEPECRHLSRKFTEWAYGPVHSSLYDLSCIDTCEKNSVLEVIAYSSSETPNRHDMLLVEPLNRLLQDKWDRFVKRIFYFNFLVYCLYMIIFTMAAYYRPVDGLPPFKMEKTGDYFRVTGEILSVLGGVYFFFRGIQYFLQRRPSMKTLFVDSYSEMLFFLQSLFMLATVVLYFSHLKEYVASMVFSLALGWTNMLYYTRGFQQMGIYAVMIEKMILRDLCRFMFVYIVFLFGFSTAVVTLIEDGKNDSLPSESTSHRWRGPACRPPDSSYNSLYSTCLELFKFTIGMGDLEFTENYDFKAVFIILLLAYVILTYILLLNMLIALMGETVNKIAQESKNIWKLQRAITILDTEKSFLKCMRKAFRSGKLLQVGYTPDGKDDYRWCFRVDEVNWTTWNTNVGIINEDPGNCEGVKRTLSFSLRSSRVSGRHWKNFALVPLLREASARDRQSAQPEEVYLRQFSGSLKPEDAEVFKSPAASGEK
SMILES,h Binding % I (1 μM) (human VR1 [1]) [%],h % I (10 μM) (human VR1 [2]) [%],inhibition at 1 µM (human VR1 [1]) [%],further results
CC(C)(C)c1ccc(CCC(=O)Nc2ccccc2-c2ccc(O)cc2)cc1 [Cpd 1],1,45,,
CC(C)(C)c1ccc(CCC(=O)Nc2cccc(-c3ccc(O)cc3)c2)cc1 [Cpd 2],11,41,,
CC(C)(C)c1ccc(CCC(=O)Nc2ccc(-c3ccc(O)cc3)cc2)cc1 [Cpd 3],,,90,Ki (human VR1 [1]): 51 nM; Emax at 12 µM (human VR1 [2]; agonist response): 65%; inhibition at 10 µM (human VR1 [2]): 44%
CC(C)(C)c1ccc(CCC(=O)Nc2ccccc2-c2cccc(O)c2)cc1 [Cpd 4],1,35,,
CC(C)(C)c1ccc(CCC(=O)Nc2cccc(-c3cccc(O)c3)c2)cc1 [Cpd 5],4,35,,
"CC(C)(C)c1ccc(CCC(=O)Nc2ccc(-c3cccc(O)c3)cc2)cc1 [Cpd 6, 3-(4-tert-butyl-phenyl)-N-(3′-hydroxy-biphenyl-4-yl)-propionamide]",,,67,Ki (human VR1 [1]): 86 nM; Emax at 12 µM (human VR1 [2]; agonist response): 24%
CC(C)(C)c1ccc(CCC(=O)Nc2cccc(-c3ccccc3O)c2)cc1 [Cpd 9],1,16,,
CC(C)(C)c1ccc(CCC(=O)Nc2ccc(-c3ccccc3O)cc2)cc1 [Cpd 10],89,40,,Ki (human VR1 [1]): 50 nM; % Response Relative to EC80 of Capsaicin (12 μM) (human VR1 [2]; agonist response): 67%
CC(C)(C)c1ccc(CCC(=O)Nc2ccc(-c3cccc([N+](=O)[O-])c3)cc2)cc1 [Cpd 11],,,84,Ki (human VR1 [1]): 145 nM; inhibition at 10 µM (human VR1 [2]): 36%
CC(C)(C)c1ccc(CCC(=O)Nc2ccc(-c3cccc(C(F)(F)F)c3)cc2)cc1 [Cpd 12],36,,,% Response Relative to EC80 of Capsaicin (12 μM) (human VR1 [2]; agonist response): 47%
CC(=O)c1cccc(-c2ccc(NC(=O)CCc3ccc(C(C)(C)C)cc3)cc2)c1 [Cpd 13],35,35,,
CC(C)(C)c1ccc(CCC(=O)Nc2ccc(-c3cccc(Cl)c3)cc2)cc1 [Cpd 14],,,55,Ki (human VR1 [1]): 4620 nM; Emax at 12 µM (human VR1 [2]; agonist response): 53%
CC(C)(C)c1ccc(CCC(=O)Nc2ccc(-c3cccc(F)c3)cc2)cc1 [Cpd 15],41,,,% Response Relative to EC80 of Capsaicin (12 μM) (human VR1 [2]; agonist response): 80%
CC(=O)Nc1cccc(-c2ccc(NC(=O)CCc3ccc(C(C)(C)C)cc3)cc2)c1 [Cpd 16],,,68,"Ki (human VR1 [1]): 169 nM; Emax at 6 µM (human VR1 [2]; agonist response, 6 μM, read-out: % Response Relative to EC80 of Capsaicin (6 μM)): 63%; Emax at 12 µM (human VR1 [2]; agonist response): 101%"
CC(C)(C)c1ccc(CCC(=O)Nc2ccc(-c3cccc(N)c3)cc2)cc1 [Cpd 17],,,90,Ki (human VR1 [1]): 48 nM; Emax at 12 µM (human VR1 [2]; agonist response): 67%
CC(C)(C)c1ccc(CCC(=O)Nc2ccccc2-c2cccc(CO)c2)cc1 [Cpd 19],1,20,,
CC(C)(C)c1ccc(CCC(=O)Nc2ccccc2-c2ccc(CO)cc2)cc1 [Cpd 20],,,1,IC50 (human VR1 [2]): 2080 nM; inhibition at 10 µM (human VR1 [2]): 70%
CC(C)(C)c1ccc(CCC(=O)Nc2cccc(-c3cccc(CO)c3)c2)cc1 [Cpd 21],1,,,% Response Relative to EC80 of Capsaicin (12 μM) (human VR1 [2]; agonist response): 45%
CC(C)(C)c1ccc(CCC(=O)Nc2cccc(-c3ccc(CO)cc3)c2)cc1 [Cpd 22],1,1,,
CC(C)(C)c1ccc(CCC(=O)Nc2ccc(-c3ccc(CO)cc3)cc2)cc1 [Cpd 24],,,87,Ki (human VR1 [1]): 84 nM; Emax at 12 µM (human VR1 [2]; agonist response): 68%; inhibition at 10 µM (human VR1 [2]): 32%
CC(C)(C)c1ccc(CCC(=O)Nc2ccc(-c3cccc(OC(F)(F)F)c3)cc2)cc1 [Cpd 26],10,,,% Response Relative to EC80 of Capsaicin (12 μM) (human VR1 [2]; agonist response): 65%
Cc1cccc(-c2ccc(NC(=O)CCc3ccc(C(C)(C)C)cc3)cc2)c1 [Cpd 28],48,,,% Response Relative to EC80 of Capsaicin (12 μM) (human VR1 [2]; agonist response): 81%

SMILES,h Binding % I (1 μM) (human VR1 [1]) [%],h % I (10 μM) (human VR1 [2]) [%],inhibition at 1 µM (human VR1 [1]) [%],further results
"COC(=O)c1cccc(-c2ccc(NC(=O)CCc3ccc(C(C)(C)C)cc3)cc2)c1 [Cpd 29, 4′-[3-(4-tert-butyl-phenyl)-propionylamino]-biphenyl-3-carboxylic acid methyl ester]",,,43,inhibition at 10 µM (human VR1 [2]): 36%
"CC(C)(C)c1ccc(CCC(=O)Nc2ccc(-c3cccc(C(=O)O)c3)cc2)cc1 [Cpd 30, 4′-[3-(4-tert-butyl-phenyl)-propionylamino]-biphenyl-3-carboxylic acid]",,,2,Emax at 12 µM (human VR1 [2]; agonist response): 94%; EC50 (human VR1 [2]): 1420 nM
"CC(C)(C)c1ccc(CCC(=O)Nc2ccc(-c3cccc(C(N)=O)c3)cc2)cc1 [Cpd 31, 4′-[3-(4-tert-butyl-phenyl)-propionylamino]-biphenyl-3-carboxylic acid amide]",,,4,inhibition at 10 µM (human VR1 [2]): 28%
CN(C)C(=O)c1cccc(-c2cccc(NC(=O)CCc3ccc(C(C)(C)C)cc3)c2)c1 [Cpd 34],17,14,,
"CC(C)(C)c1ccc(/C=C/C(=O)Nc2ccc(-c3cccc(C(N)=O)c3)cc2)cc1 [Cpd 35, 4′-[3-(4-tert-butyl-phenyl)-acryloylamino]-biphenyl-3-carboxylic acid amide]",,,30,Emax at 12 µM (human VR1 [2]; agonist response): 53%
CN(C)C(=O)c1cccc(-c2ccc(NC(=O)/C=C/c3ccc(C(C)(C)C)cc3)cc2)c1 [Cpd 36],16,,,% Response Relative to EC80 of Capsaicin (12 μM) (human VR1 [2]; agonist response): 55%
CC(C)(C)c1ccc(CCC(=O)Nc2cccc(-c3cccc(C(N)=O)c3)c2)cc1 [Cpd 37],21,16,,
CN(C)C(=O)c1cccc(-c2cccc(NC(=O)CCc3ccc(C(C)(C)C)cc3)c2)c1 [Cpd 38],1,17,,
CN(C)C(=O)c1cccc(-c2ccc(NC(=O)CCc3ccc(C(C)(C)C)cc3)cc2)c1 [Cpd 39],5,24,,
CC(C)(C)c1ccc(CCC(=O)Nc2ccc(-c3cccc(NS(C)(=O)=O)c3)cc2)cc1 [Cpd 40],41,,,% Response Relative to EC80 of Capsaicin (12 μM) (human VR1 [2]; agonist response): 74%
CC(C)(C)OC(=O)Nc1cccc(-c2ccc(NC(=O)CCc3ccc(C(C)(C)C)cc3)cc2)c1 [Cpd 41],,,78.8,Ki (human VR1 [1]): 109 nM; Emax at 12 µM (human VR1 [2]; agonist response): 43%; inhibition at 10 µM (human VR1 [2]): 30%
CC(C)(C)OC(=O)NCc1cccc(-c2ccc(NC(=O)CCc3ccc(C(C)(C)C)cc3)cc2)c1 [Cpd 42],1.1,9,,
CC(C)(C)c1ccc(CCC(=O)Nc2ccc(-c3cccc(CN)c3)cc2)cc1 [Cpd 43],,,23,Emax at 12 µM (human VR1 [2]; agonist response): 104%; EC50 (human VR1 [2]): 1660 nM
CC(C)(C)c1ccc(CCC(=O)Nc2ccc(-c3cccc(NC(N)=O)c3)cc2)cc1 [Cpd 44],,,97,Ki (human VR1 [1]): 52 nM; Emax at 12 µM (human VR1 [2]; agonist response): 102%; EC50 (human VR1 [2]): 289 nM
CC(C)(C)c1ccc(CCC(=O)Nc2ccc(-c3cccc(OCCN)c3)cc2)cc1 [Cpd 45],,,16,Emax at 12 µM (human VR1 [2]; agonist response): 84%; EC50 (human VR1 [2]): 2400 nM
CC(C)(C)c1ccc(CCC(=O)Nc2ccc(-c3cccc(NCCO)c3)cc2)cc1 [Cpd 46],,,34,IC50 (human VR1 [2]): 4770 nM; inhibition at 10 µM (human VR1 [2]): 53%
CC(C)(C)c1ccc(CCC(=O)Nc2ccc(-c3c[nH]cn3)cc2)cc1 [Cpd 192],50,,,
CC(C)(C)c1ccc(CCC(=O)Nc2ccc(-c3cnco3)cc2)cc1 [Cpd 193],49,,,
Cc1cc(C)n(-c2ccc(NC(=O)CCc3ccc(C(C)(C)C)cc3)cc2)n1 [Cpd 196],76,,,
CC(C)(C)c1ccc(CCC(=O)Nc2ccc(-n3cnc(Cl)c3Cl)cc2)cc1 [Cpd 200],100,,,
CC(C)(C)c1ccc(CCC(=O)Nc2ccc(-n3ccnc3)cc2)cc1 [Cpd 261],,,,Ki (human VR1 [1]): 311 nM

# Source: US20060223837A1 (priority 2005, published 2006)
